Experimental data as given in PubChem BioAssay AID248 (DTP/NCI, 2004).
Several values for one entry are separate records, joined by “and”; a condition that tells them apart may be missing. Identical values can stand only once. Inconclusive results and toxic doses are left out. Cut-off read from the data, not from the text of the source: active = T/C of 150% or more; inactive = T/C below 125%.

Test system: L1210 leukemia ip in BDF1 mice, survival T/C
Experiment: NCI In Vivo Anticancer Drug Screen. Data for tumor model L1210 Leukemia (intraperitoneal) in B6D2F1 (BDF1) mice
Conditions: endpoint: mean survival time, higher = longer survival
In short: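 Survival endpoint. Drug-treated group vs vehicle group, expressed as T divided by C. Tumor passaged by transplantation.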

[1] = dose: 100.0 mg/kg/injection, schedule: Q04DX003 (ip), vehicle: Klucel (hydroxypropylcellulose) (HPC)
[2] = dose: 200.0 mg/kg/injection, schedule: Q04DX003 (ip), vehicle: Klucel (hydroxypropylcellulose) (HPC)
[3] = dose: 400.0 mg/kg/injection, schedule: Q04DX003 (ip), vehicle: Klucel (hydroxypropylcellulose) (HPC)
[4] = dose: 100.0 mg/kg/injection, schedule: Q01DX001 (ip), vehicle: saline
[5] = dose: 100.0 mg/kg/injection, schedule: Q01DX009 (ip), vehicle: acetone
[6] = dose: 200.0 mg/kg/injection, schedule: Q01DX001 (ip), vehicle: saline
[7] = dose: 400.0 mg/kg/injection, schedule: Q01DX001 (ip), vehicle: saline
[8] = dose: 100.0 mg/kg/injection, schedule: Q01DX009 (ip), vehicle: Klucel (hydroxypropylcellulose) (HPC)
[9] = dose: 200.0 mg/kg/injection, schedule: Q01DX009 (ip), vehicle: Klucel (hydroxypropylcellulose) (HPC)
[10] = dose: 400.0 mg/kg/injection, schedule: Q01DX009 (ip), vehicle: Klucel (hydroxypropylcellulose) (HPC)

Measured: T/C

Cc1c(F)c(I)c(Br)c(C)c1[N+](=O)[O-]
inactive: dose: 75.0 mg/kg/injection, schedule: Q04DX003 (ip), vehicle: Klucel (hydroxypropylcellulose) (HPC) 104 % of control | dose: 150.0 mg/kg/injection, schedule: Q04DX003 (ip), vehicle: Klucel (hydroxypropylcellulose) (HPC) 88 % of control | dose: 300.0 mg/kg/injection, schedule: Q04DX003 (ip), vehicle: Klucel (hydroxypropylcellulose) (HPC) 93 % of control

CC1CC(NCCO)CC(C)(C)C1 (stereo not drawn)
inactive: dose: 75.0 mg/kg/injection, schedule: Q01DX001 (ip), vehicle: acid diluted with saline 122 % of control | dose: 150.0 mg/kg/injection, schedule: Q01DX001 (ip), vehicle: acid diluted with saline 100 % of control

O=C(OC1C=CCC1)c1ccc([N+](=O)[O-])cc1 (stereo not drawn)
inactive: [1] 97 % of control | [2] 93 % of control | [3] 93 % of control

N#Cc1ccc(S(N)(=O)=O)cc1
inactive: [4] 100 % of control | [5] 98 % of control | dose: 100.0 mg/kg/injection, schedule: Q04DX003 (ip), vehicle: acetone 96 % of control | [6] 94 % of control | dose: 200.0 mg/kg/injection, schedule: Q04DX003 (ip), vehicle: acetone 94 % of control | [7] 120 % of control | dose: 400.0 mg/kg/injection, schedule: Q04DX003 (ip), vehicle: acetone 100 % of control

O=C(CCl)Nc1cc(Cl)ccc1N1CCCCC1
inactive: [5] 100 % of control | dose: 200.0 mg/kg/injection, schedule: Q01DX009 (ip), vehicle: acetone 91 % of control | dose: 400.0 mg/kg/injection, schedule: Q01DX009 (ip), vehicle: acetone 91 % of control

Cc1cc(=O)n2c3c(c(N)ccc13)OC2
inactive: [8] 108 % of control | [1] 93 % of control | [9] 97 % of control | [2] 100 % of control | [10] 93 % of control | [3] 97 % of control

O=C1c2ccccc2C(=O)N1CCCCCN1C(=O)c2ccccc2C1=O
inactive: dose: 100.0 mg/kg/injection, schedule: Q01DX001 (ip), vehicle: saline with Tween-80 102 % of control | dose: 100.0 mg/kg/injection, schedule: Q04DX002 (ip), vehicle: saline with Tween-80 104 % of control | dose: 200.0 mg/kg/injection, schedule: Q01DX001 (ip), vehicle: saline with Tween-80 96 % of control | dose: 200.0 mg/kg/injection, schedule: Q04DX002 (ip), vehicle: saline with Tween-80 96 % of control | dose: 400.0 mg/kg/injection, schedule: Q01DX001 (ip), vehicle: saline with Tween-80 98 % of control | dose: 400.0 mg/kg/injection, schedule: Q04DX002 (ip), vehicle: saline with Tween-80 101 % of control

COC(=O)c1c(C(=O)c2ccccc2)nn2c(-c3ccccc3)c(-c3ccccc3)c(-c3ccccc3)c(-c3ccccc3)c12
inactive: [6] 86 % of control | [7] 93 % of control

CC[C@@]1(O)C(=O)OCc2c1cc1n(c2=O)Cc2c-1nc1ccccc1c2Cl
inactive: [4] 117 % of control | [7] 88 % of control

COc1ccccc1NC(=O)Oc1ccc(-c2ccccc2)cc1Br
inactive: [8] 92 % of control | [1] 97 % of control | [9] 97 % of control | [2] 95 % of control | [10] 101 % of control | [3] 93 % of control

O=[N+]([O-])C1=C(c2ccccc2)C(c2ccccc2)(c2ccccc2)N=N1
inactive: [4] 100 % of control | [6] 90 % of control | [7] 88 % of control

CCOC(=O)C1CCC(C(=O)OCC)N1C (stereo not drawn)
inactive: [4] 97 % of control | dose: 100.0 mg/kg/injection, schedule: Q01DX009 (ip), vehicle: saline 96 % of control | [6] 88 % of control | dose: 200.0 mg/kg/injection, schedule: Q01DX009 (ip), vehicle: saline 98 % of control | [7] 95 % of control | dose: 400.0 mg/kg/injection, schedule: Q01DX009 (ip), vehicle: saline 100 % of control

CCCCCCCCCCNC(=O)C[n+]1cccc(C(=O)Nc2ccc(Cl)cc2)c1
inactive: dose: 6.25 mg/kg/injection, schedule: Q01DX009 (ip), vehicle: acetone 97 % of control | dose: 12.5 mg/kg/injection, schedule: Q01DX009 (ip), vehicle: acetone 92 % of control | dose: 12.5 mg/kg/injection, schedule: Q04DX003 (ip), vehicle: saline 108 % of control | dose: 25.0 mg/kg/injection, schedule: Q04DX003 (ip), vehicle: saline 96 % of control

CCOP(=S)(N1CC1C)N1CC1C (stereo not drawn)
inactive: dose: 25.0 mg/kg/injection, schedule: Q01DX Z (ip), vehicle: carboxymethylcellulose (CMC) 103 % of control | dose: 50.0 mg/kg/injection, schedule: Q01DX Z (ip), vehicle: carboxymethylcellulose (CMC) 105 % of control | dose: 100.0 mg/kg/injection, schedule: Q01DX Z (ip), vehicle: carboxymethylcellulose (CMC) 108 % of control | dose: 200.0 mg/kg/injection, schedule: Q01DX Z (ip), vehicle: carboxymethylcellulose (CMC) 121 % of control

CCOC(=O)c1cccs1
inactive: [8] 99 % of control | [1] 103 % of control | [9] 95 % of control | [2] 100 % of control | [10] 97 % of control | [3] 105 % of control

Cc1cs[n+](C)c1
inactive: [4] 94 % of control | [6] 97 % of control

CCN1C(=O)/C(=C\c2ccccc2)N=C1C
inactive: dose: 12.5 mg/kg/injection, schedule: Q01DX009 (ip), vehicle: DMSO 92 % of control | dose: 25.0 mg/kg/injection, schedule: Q01DX009 (ip), vehicle: DMSO 94 % of control | dose: 50.0 mg/kg/injection, schedule: Q01DX009 (ip), vehicle: DMSO 96 % of control

CC(C)(C)C1C(=O)N1C(C)(C)C (stereo not drawn)
inactive: [8] 103 % of control | [1] 101 % of control | [9] 101 % of control | [2] 97 % of control | [3] 97 % of control

COc1ccc(C(O)C2c3c(cc4c(c3OC)OCO4)CCN2C)c(CO)c1OC (stereo not drawn)
inactive: dose: 75.0 mg/kg/injection, schedule: Q01DX001 (ip), vehicle: carboxymethylcellulose (CMC) 100 % of control | dose: 150.0 mg/kg/injection, schedule: Q01DX001 (ip), vehicle: carboxymethylcellulose (CMC) 105 % of control

O=c1n(CCCl)c(=O)n(CCCl)c(=O)n1CCCl
inactive: dose: 50.0 mg/kg/injection, schedule: Q04DX003 (ip), vehicle: saline with Tween-80 103 % of control | dose: 100.0 mg/kg/injection, schedule: Q04DX003 (ip), vehicle: saline with Tween-80 88 % of control | dose: 200.0 mg/kg/injection, schedule: Q04DX003 (ip), vehicle: saline with Tween-80 96 % of control and 87 % of control | dose: 400.0 mg/kg/injection, schedule: Q04DX003 (ip), vehicle: saline with Tween-80 98 % of control

FC1(F)SC2C3CCC(C3)C2C1(F)F (stereo not drawn)
inactive: dose: 6.25 mg/kg/injection, schedule: Q04DX002 (ip), vehicle: saline with Tween-80 95 % of control | dose: 12.5 mg/kg/injection, schedule: Q04DX002 (ip), vehicle: saline with Tween-80 95 % of control | dose: 25.0 mg/kg/injection, schedule: Q04DX002 (ip), vehicle: saline with Tween-80 93 % of control

c1ccc(-c2nc3ccccc3[nH]2)cc1
inactive: dose: 55.0 mg/kg/injection, schedule: Q01DX Z (ip), vehicle: methylcellulose (MC) 107 % of control | dose: 83.0 mg/kg/injection, schedule: Q01DX Z (ip), vehicle: methylcellulose (MC) 103 % of control | dose: 100.0 mg/kg/injection, schedule: Q04DX002 (ip), vehicle: Klucel (hydroxypropylcellulose) (HPC) 109 % of control and 95 % of control | dose: 125.0 mg/kg/injection, schedule: Q01DX Z (ip), vehicle: methylcellulose (MC) 100 % of control | dose: 200.0 mg/kg/injection, schedule: Q04DX002 (ip), vehicle: Klucel (hydroxypropylcellulose) (HPC) 103 % of control and 106 % of control | dose: 400.0 mg/kg/injection, schedule: Q04DX002 (ip), vehicle: Klucel (hydroxypropylcellulose) (HPC) 109 % of control and 98 % of control
